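Briefly, cells in 96-well plates were exposed to five compound concentrations for 48 h, and endpoints were estimated by linear interpolation. The concentration for 50% growth inhibition is given as GI50.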 Active and inactive are the calls of the source. Rule as the data show it: active = GI50 up to about 1.1 µM and inactive = higher.
Tests used:
Test in all cases: DTP human tumour cell line panel, 48 h
A549 = system: A549
CAKI-1 = system: CAKI-1
CCRF-CEM = system: CCRF-CEM
COLO 205 = system: COLO 205
HCC 2998 = system: HCC 2998
HCT-15 = system: HCT-15
HOP-62 = system: HOP-62
HOP-92 = system: HOP-92
LOX IMVI = system: LOX IMVI
NCI-H23 = system: NCI-H23
OVCAR-8 = system: OVCAR-8
RPMI-8226 = system: RPMI-8226
SF-539 = system: SF-539
SNB-19 = system: SNB-19
UACC-257 = system: UACC-257
UO-31 = system: UO-31
SR = system: SR

Structure (SMILES) | GI50 (A549) | GI50 (CAKI-1) | GI50 (CCRF-CEM) | GI50 (COLO 205) | GI50 (HCC 2998) | GI50 (HCT-15) [µM] | GI50 (HOP-62) | GI50 (HOP-92) | GI50 (LOX IMVI) | GI50 (NCI-H23) | GI50 (OVCAR-8) | GI50 (RPMI-8226) | GI50 (SF-539) | GI50 (SNB-19) | GI50 (UACC-257) | GI50 (UO-31) | GI50 (SR)
O=C(/N=N/C(=O)OCc1ccccc1)OCc1ccccc1 | 81.3 µM (inactive) | 49.8 µM (inactive) | 84.1 µM (inactive) | > 100 µM (inactive) | > 100 µM (inactive) | 94.2 | > 100 µM (inactive) | 10.4 µM (inactive) | > 100 µM (inactive) | 99.8 µM (inactive) | > 100 µM (inactive) | 53.2 µM (inactive) | > 100 µM (inactive) | 64.9 µM (inactive) | > 100 µM (inactive) | 31.6 µM (inactive) | –
C=C1C(=O)OC2C1C(OC(=O)/C(C)=C\C)CC1(CO1)C1C(O)C=C(C)C21O (stereo unspecified) | 20.6 µM (inactive) | 2.04 µM (inactive) | 2.65 µM (inactive) | 1.17 µM (inactive) | 4.63 µM (inactive) | 2.81 | 23.6 µM (inactive) | 10.7 µM (inactive) | 14.4 µM (inactive) | 7.19 µM (inactive) | 2.67 µM (inactive) | 4.56 µM (inactive) | 2.61 µM (inactive) | 20.7 µM (inactive) | 9.73 µM (inactive) | 10.3 µM (inactive) | 4.83 µM (inactive)
CC(C)=CCC/C(C)=C/CC/C(C)=C/C1CCC(=O)C1(C)C (stereo unspecified) | 27 µM (inactive) | 20.7 µM (inactive) | 17.1 µM (inactive) | 16.2 µM (inactive) | 22.9 µM (inactive) | 15.5 | 26.5 µM (inactive) | 25.9 µM (inactive) | 15.3 µM (inactive) | 20.3 µM (inactive) | 19.6 µM (inactive) | 20 µM (inactive) | 19.5 µM (inactive) | 25.1 µM (inactive) | 21.3 µM (inactive) | 17 µM (inactive) | 19.7 µM (inactive)
CSc1nnc(CCC(=O)Nc2c(C)cccc2C)o1 | > 100 µM (inactive) | > 100 µM (inactive) | > 100 µM (inactive) | > 100 µM (inactive) | > 100 µM (inactive) | 50.8 | > 100 µM (inactive) | > 100 µM (inactive) | > 100 µM (inactive) | > 100 µM (inactive) | > 100 µM (inactive) | > 100 µM (inactive) | > 100 µM (inactive) | > 100 µM (inactive) | > 100 µM (inactive) | > 100 µM (inactive) | –

— ChEMBL document CHEMBL1201862, “PubChem BioAssay data set” (2004)
